Results taken from EPA's ToxRefDB 2.

How the values were obtained:
dog [1] = details: Subchronic oral toxicity in nonrodent, beagle, Feed, dose end: 13 week, group: systemic
dog [2] = details: Chronic toxicity; beagle; Oral; Feed; dose end: 52 week; group: systemic; systemic / clinical chemistry / alkaline phosphatase (alp/alk) / alkaline phosphatase (alp/alk) + systemic / organ weight / liver / absolute…
mouse [3] = details: Carcinogenicity; cd1; Oral; Feed; dose end: 18 month; group: systemic; systemic / pathology microscopic / lung / adenoma
rat [4] = details: Combined chronic toxicity/carcinogenicity; sprague dawley; Oral; [Not Specified]; dose end: 24 month; group: systemic; systemic / hematology / erythrocyte (rbc) count differential / erythrocyte (rbc)
mouse [5] = details: Carcinogenicity, cd1, Oral, Feed, dose end: 102 week, group: systemic
rat [6] = details: Subchronic oral toxicity in rodents, sprague dawley, Feed, dose end: 13 week
rat [7] = details: Combined chronic toxicity/carcinogenicity, other, Oral, Feed, dose end: 104 week
dog [8] = details: Chronic toxicity, beagle, Oral, Capsule, dose end: 12 month
dog [9] = details: Subchronic oral toxicity in nonrodent, beagle, Capsule, dose end: 90 day
rat [10] = details: Sub-acute dermal toxicity, sprague dawley, Topical, dose end: 21 day, group: systemic, systemic / in life observation / clinical signs / desquamation + systemic / in life observation / clinical signs / erythema + systemic / …
[11] = systemic / clinical chemistry / albumin / albumin + systemic / clinical chemistry / albumin-globulin ratio / albumin-globulin ratio + …
[12] = systemic / pathology microscopic / adrenal gland / pigmentation
[13] = systemic / pathology microscopic / adrenal gland / pigmentation + systemic / in life observation / body weight / body weight + systemic / in…
[14] = group: cholinesterase, cholinesterase / cholinesterase / cholinesterase / erythrocyte cholinesterase (che)
[15] = group: systemic, systemic / pathology microscopic / adrenal gland / vacuolization cytoplasmic
[16] = group: systemic, systemic / hematology / erythrocyte (rbc) count differential / erythrocyte (rbc) + systemic / hematology / hematocrit (hct) / hematocrit (…
[17] = group: systemic, systemic / urinalysis / volume / volume
[18] = group: cholinesterase, cholinesterase / cholinesterase / cholinesterase / plasma cholinesterase (che)
[19] = group: systemic, systemic / clinical chemistry / alanine aminotransferase (alt/sgpt) / alanine aminotransferase (alt/sgpt)
[20] = group: systemic, systemic / clinical chemistry / alanine aminotransferase (alt/sgpt) / alanine aminotransferase (alt/sgpt) + systemic / hematology / …
[21] = group: cholinesterase, cholinesterase / cholinesterase / cholinesterase / plasma cholinesterase (che) + cholinesterase / cholinesterase / cholinesterase / brain …
[22] = group: systemic, systemic / pathology microscopic / adrenal gland / cytoplasmic alteration + systemic / pathology microscopic / adrenal gland / hypertrophy

CCC(C)(NC(=O)c1cc(Cl)c(C)c(Cl)c1)C(=O)CCl (stereo unspecified) [Zoxamide]
LOAEL (dog [1]; [11]): 1050 mg/kg/day | NEL (dog [1]; [11]): 61.8 mg/kg/day | NOAEL (dog [1]; [11]): 322 mg/kg/day | LEL (dog [1]; systemic / organ weight / liver / absolute + systemic / organ weight / liver / relative to body weight): 322 mg/kg/day | LEL (dog [2]): 255 mg/kg/day | LOAEL (dog [2]): 255 mg/kg/day | NEL (dog [2]): 50 mg/kg/day | NOAEL (dog [2]): 50 mg/kg/day | LEL (mouse [3]): 1290 mg/kg/day | LOAEL (mouse [3]): > 1290 mg/kg/day | NEL (mouse [3]): 326 mg/kg/day | NOAEL (mouse [3]): ≥ 1290 mg/kg/day | LEL (rat [4]): 51 mg/kg/day | LOAEL (rat [4]): > 1060 mg/kg/day | NEL (rat [4]): < 51 mg/kg/day | NOAEL (rat [4]): ≥ 1060 mg/kg/day

CCOP(=O)(SC(C)CC)N1CCSC1=O (stereo unspecified) [Fosthiazate]
LEL (mouse [5]; [12]): 10.4 mg/kg/day | LOAEL (mouse [5]; [12]): 10.4 mg/kg/day | NEL (mouse [5]; [13]): 3.2 mg/kg/day | NOAEL (mouse [5]; [13]): 3.2 mg/kg/day | LEL (rat [6]; [14]): 0.09 mg/kg/day | LOAEL (rat [6]; [14]): 0.09 mg/kg/day | NEL (rat [6]; [14]): < 0.09 mg/kg/day | NOAEL (rat [6]; [14]): < 0.09 mg/kg/day | LEL (rat [6]; [15]): 0.08 mg/kg/day | LOAEL (rat [6]; [15]): 0.08 mg/kg/day | NEL (rat [6]; [15]): < 0.08 mg/kg/day | NOAEL (rat [6]; [15]): < 0.08 mg/kg/day | LEL (rat [7]; [14]): 0.051 mg/kg/day | LOAEL (rat [7]; [14]): 0.38 mg/kg/day | NEL (rat [7]; [14]): < 0.051 mg/kg/day | NOAEL (rat [7]; group: cholinesterase, cholinesterase / cholinesterase / cholinesterase / erythrocyte cholinesterase (che) + cholinesterase / cholinesterase / cholinesterase / …): 0.039 mg/kg/day | LOAEL (rat [7]; [16]): 2.45 mg/kg/day | NOAEL (rat [7]; [16]): 0.5 mg/kg/day | LEL (rat [7]; [17]): 0.039 mg/kg/day | NEL (rat [7]; [17]): < 0.039 mg/kg/day | LEL (dog [8]; [18]): 0.5 mg/kg/day | LOAEL (dog [8]; [18]): 0.5 mg/kg/day | NEL (dog [8]; [18]): 0.1 mg/kg/day | NOAEL (dog [8]; [18]): 0.1 mg/kg/day | LEL (dog [8]; [19]): 0.5 mg/kg/day | LOAEL (dog [8]; [19]): 0.5 mg/kg/day | NEL (dog [8]; [20]): 0.1 mg/kg/day | NOAEL (dog [8]; [20]): 0.1 mg/kg/day | LEL (dog [9]; [18]): 0.11 mg/kg/day | LOAEL (dog [9]; [18]): 0.11 mg/kg/day | NEL (dog [9]; [21]): 0.054 mg/kg/day | NOAEL (dog [9]; [21]): 0.054 mg/kg/day | LEL (dog [9]; [22]): 0.11 mg/kg/day | LOAEL (dog [9]; [22]): 0.11 mg/kg/day | NEL (dog [9]; [22]): 0.054 mg/kg/day | NOAEL (dog [9]; [22]): 0.054 mg/kg/day

ClCCCCCCCl [1,6-Dichlorohexane]
LEL (rat [10]): 100 mg/kg/day | LOAEL (rat [10]): 100 mg/kg/day | NEL (rat [10]): < 100 mg/kg/day | NOAEL (rat [10]): < 100 mg/kg/day
